According to patent publication US9034898B2, “FGF receptor (FGFR) agonist dimeric compounds, process for the preparation thereof and therapeutic use thereof” (Sanofi, priority 2011, dated 2015):

Columns and labels:
[1] = test system: human venous endothelial cells (HUVECs); assay: In vitro angiogenesis model (pseudotubule length of HUVECs on matrigel/collagen); type: cell-based; design: % activation with respect to FGF2 (in vitro): concentration or dose not given beside the values; details: for activity on the in vitro angiogenesis model: at a concentration of 1 nM, HUVECs, 24 hours; for EC50 / % activation with respect to FGF2 (in vitro): in vitro; for % activation with respect to FGF2 (in vitro): relative to FGF2
Experimental: In Vitro Angiogenesis Model
The products are tested for their ability to cause rearrangement of human venous endothelial cells (HUVECs) on matrigel (Becton dickinson 356230) diluted in collagen (rat tail collagen, type I: Becton dickinson 354236). After 24 hours, the cells are observed under a microscope with a X4 objective and the length of the pseudotubules is measured by means of an image analyser (BIOCOM-logiciel Visiolab 2000).
By way of example, compounds 1, 2, 3, 5 and 9 are active at a concentration of 1 nM on the in vitro angiogenesis model.

[2] = test system: BalbC mice; assay: Sponge angiogenesis model (haemoglobin content of implanted cellulose sponge); type: in vivo; details: concentration of 300 μM injected into the sponge, eighth day after implantation
Text: Sponge Angiogenesis Model
The sponge angiogenesis model is an adaptation of the technique of Andrade et al [Andrade S P, Machado R., Teixeir A S, Belo A V, Tarso A M, Beraldo W T—Sponge-induced angiogenesis in mice and the pharmacological reactivity of the neovasculature quantitated by fluorimetric method, Microvascular Research, 1997, 54: 253-61.]
The mice used are BalbC females from Charles River Laboratory, 7 to 10 weeks old. The animals are anaesthetized by intraperitoneal injection of a xylazine/ketamine mixture ([…] in 0.9% NaCl). The animal's back is shaved and disinfected with hexomedine. A subcutaneous 5 ml pocket of air is made on the animal's back with sterile air. An incision is then made (approximately 1 cm) on the top of the animal's back in order to implant the sponge into the pocket. The biocompatible cellulose sponge (Cellspon, Interchim, 10 mm in diameter) was sterilized beforehand (autoclave 20 min at 120° C.) and is impregnated with 50 μl of sterile solution containing the test product. Suturing is performed by inserting two 9-mm stainless steel autoclip staples (Subra). The wound is again disinfected with hexomedine. […]
To assay the haemoglobin, 50 μl of each sample are deposited in a 96-well plate, in duplicate. […] The OD values are read on a spectrophotometer at 405 nm, using the Biolise software (Tecan, France). […]

Structure (SMILES)	activity on the in vitro angiogenesis model [1]	EC50 [1] [nM]	% activation with respect to FGF2 (in vitro) [1] [%]	activity on the in vivo angiogenesis model [2]	EC50 ([1]; Homo sapiens, HUVEC) [nM]
O=C(O)c1cc(-c2cc(C(=O)NCCCOCCOCCCNC(=O)c3cc(-c4ccc(F)c(C(=O)O)c4)nc4[nH]nc(-c5ccccc5)c34)c3c(-c4ccccc4)n[nH]c3n2)ccc1F [Compound 1, 3,3′-{ethane-1,2-diylbis[oxypropane-3,1-diylcarbamoyl(3-phenyl-1H-pyrazolo[3,4-b]pyridine-4,6-diyl)]}bis(6-fluorobenzoic acid)]	active	< 1	84	–	–
O=C(O)c1cc(-c2cc(C(=O)NCCCOCCOCCOCCCNC(=O)c3cc(-c4ccc(F)c(C(=O)O)c4)nc4[nH]nc(-c5ccccc5)c34)c3c(-c4ccccc4)n[nH]c3n2)ccc1F [Compound 2, 5-[4-({15-[6-(3-carboxy-4-fluorophenyl)-3-phenyl-1H-pyrazolo[3,4-b]pyridin-4-yl]-15-oxo-4,7,10-trioxa-14-azapentadec-1-yl}carbamoyl)-3-phenyl-1H-pyrazolo[3,4-b]pyridin-6-yl]-2-fluorobenzoic acid]	active	–	84	active	< 1
O=C(O)c1cc(-c2cc(C(=O)NCCOCCOCCOCCOCCNC(=O)c3cc(-c4ccc(F)c(C(=O)O)c4)nc4[nH]nc(-c5ccccc5)c34)c3c(-c4ccccc4)n[nH]c3n2)ccc1F [Compound 3, 5-[4-({16-[6-(3-carboxy-4-fluorophenyl)-3-phenyl-1H-pyrazolo[3,4-b]pyridin-4-yl]-16-oxo-3,6,9,12-tetraoxa-15-azahexadec-1-yl}carbamoyl)-3-phenyl-1H-pyrazolo[3,4-b]pyridin-6-yl]-2-fluorobenzoic acid]	active	–	75	–	< 1
O=C(O)c1cc(-c2cc(C(=O)NCCCOCCOCCOCCOCCOCCCNC(=O)c3cc(-c4ccc(F)c(C(=O)O)c4)nc4[nH]nc(-c5ccccc5)c34)c3c(-c4ccccc4)n[nH]c3n2)ccc1F [Compound 5, 5-[4-({21-[6-(3-carboxy-4-fluorophenyl)-3-phenyl-1H-pyrazolo[3,4-b]pyridin-4-yl]-21-oxo-4,7,10,13,16-pentaoxa-20-azahenicos-1-yl}carbamoyl)-3-phenyl-1H-pyrazolo[3,4-b]pyridin-6-yl]-2-fluorobenzoic acid]	active	–	124	–	< 1
NC(=O)c1cc(-c2ccc(F)c(C(=O)O)c2)nc2[nH]nc(-c3cccc(C(=O)NCCCOCCOCCOCCCNC(=O)c4cccc(-c5n[nH]c6nc(-c7ccc(F)c(C(=O)O)c7)cc(C(N)=O)c56)c4)c3)c12 [Compound 6, 5-(4-carbamoyl-3-{3-[(15-{3-[4-carbamoyl-6-(3-carboxy-4-fluorophenyl)-1H-pyrazolo[3,4-b]pyridin-3-yl]phenyl}-15-oxo-4,7,10-trioxa-14-azapentadec-1-yl)carbamoyl]phenyl}-1H-pyrazolo[3,4-b]pyridin-6-yl)-2-fluorobenzoic acid]	–	–	50	–	3
NC(=O)c1cc(-c2ccc(F)c(C(=O)O)c2)nc2[nH]nc(-c3ccc(C(=O)NCCCOCCOCCOCCCNC(=O)c4ccc(-c5n[nH]c6nc(-c7ccc(F)c(C(=O)O)c7)cc(C(N)=O)c56)cc4)cc3)c12 [Compound 8, 5-(4-carbamoyl-3-{4-[(15-{4-[4-carbamoyl-6-(3-carboxy-4-fluorophenyl)-1H-pyrazolo[3,4-b]pyridin-3-yl]phenyl}-15-oxo-4,7,10-trioxa-14-azapentadec-1-yl)carbamoyl]phenyl}-1H-pyrazolo[3,4-b]pyridin-6-yl)-2-fluorobenzoic acid]	–	–	20	–	< 100
NC(=O)c1cc(-c2ccc(F)c(C(=O)O)c2)nc2[nH]nc(-c3ccc(C(=O)NCCOCCOCCNC(=O)c4ccc(-c5n[nH]c6nc(-c7ccc(F)c(C(=O)O)c7)cc(C(N)=O)c56)cc4)cc3)c12 [Compound 9, 3,3′-{ethane-1,2-diylbis[oxyethane-2,1-diylcarbamoylbenzene-4,1-diyl(4-carbamoyl-1H-pyrazolo[3,4-b]pyridine-3,6-diyl)]}bis(6-fluorobenzoic acid)]	active	< 1	60	–	–
